Assay results as given in patent publication US11278549B2, “Method of treating obesity” (McMaster University, priority 2013, dated 2022).

Assays:
[1] = target: T1, 5-HT2A (Mus musculus, UniProt P35363); experiment: Fluo-4 Ca2+ signals in brown adipocytes; format: cell-based
T1 construct: endogenous in cells; host or cells: immortalized murine brown adipocytes (differentiated)
From the text: Immortalized BA progenitor cells obtained from 5-HT2A KO (B6; 129-5-HT2Atm1a/Nju from Nanjing Biomedical Research Institute of Nanjing University) mice were differentiated for 9 days to produce mature BAs. Cells were then stained with fluo-4 and treated with different concentrations of 5-HT to obtain a dose response curve. Values from BAs expressing 5-HT2A used for other experiments were plotted as a WT comparison.

[2] = test system: brown adipose tissue; experiment: Acute 5-HT with or without xylamidine pretreatment: BAT activity in vivo; parameters: species or system mice
Experimental: Mice housed at 30° C. were injected with xylamidine (3 mg/kg, −2 hour), 5-HT (5 mg/kg, −1 hour) and/or CL-316,243 (1 mg/kg, −20 min). […] Interscapular surface temperature under saline (C) and CL-316,243 (D) conditions were quantified. n=6. † indicates interaction effect via 2-way ANOVA. * indicates significant difference from saline via bonferonni post-hoc test. In all graphs, bars represent mean and error bars represent S.E.M;
(§1) To investigate effects in vivo, 5-HT (5 mg/kg i.p.) was acutely administered to mice with or without a peripherally-restricted 5-HT2A antagonist (xylamidine tosylate) (3 mg/kg i.p.) to assess BAT function. Chow fed female FVBNJ mice (Jackson laboratories) were fasted for 6 hours. Each mouse was intraperitoneal injected with Vehicle (0.9% NaCl) or Xylamidine (3 mg/kg in 0.9% NaCl) at −100 minutes, followed by Vehicle or 5-HT (5 mg/kg in 0.9% NaCl) at −40 minutes, and finally Glucose ([…]) at 0 minutes. Blood glucose was monitored at the indicated times (FIG. 22). Chow mice were administered xylamidine tosylate (3 mg/kg daily) via intraperitoneal injection for ˜5 weeks. Mice were then moved to anaesthetized and injected with either saline or CL-316,243. Oxygen consumption was recorded while at 30° C. Finally, xylamidine tosylate (3 mg/kg i.p. daily) was administered to mice on a HFD and indices of whole body metabolism, such as resting energy expenditure, glucose tolerance and NAFLD, were evaluated. The mRNA and protein expression of markers of beige adipose tissue (UCP1, PRDM16, NDUFB8, SDHB, MTCO1, UQCRC2 and ATP5A) were also evaluated.

[3] = test system: Chow fed female FVBNJ mice; experiment: Acute xylamidine, 5-HT and glucose injection: glucose tolerance; format: in vivo; details: acute administration 3 mg/kg i.p.; effect larger when pre-treated with 5-HT
Experimental: as §1

[4] = test system: Chow mice; experiment: Repeated xylamidine tosylate in chow mice: BAT energy expenditure with saline or CL-316,243; format: in vivo
Experimental: as §1

[5] = test system: mice on a HFD; experiment: Chronic xylamidine tosylate in mice on a HFD; format: in vivo
Experimental: (B) graphically depicts the fat content of mice from (A). […] Bars/points represent mean and error bars indicate S.E.M;
as §1

[6] = test system: BAT cells; experiment: Serotonin on isoproterenol-stimulated cAMP and thermogenic program in BAT cells; format: cell-based, mouse; details: serotonin prior to isoproterenol
Experimental: To examine whether serotonin could alter cAMP and the induction of the thermogenic program in a cell autonomous manner, BAT cells were treated with the concentrations of serotonin observed in the BAT of Tph1^+/+ mice fed a HFD (FIG. 9b) prior to stimulation with isoproterenol ([…]). Serotonin treatment attenuated isoproterenol-stimulated cAMP and phosphorylation of protein kinase A substrates such as hormone sensitive lipase (HSL […]-FIG. 9c) and importantly also blunted the induction of the thermogenic gene program (FIG. 9d-f). […] Cell Culture. An immortalized brown adipocyte (BA) cell line derived from mouse fetal brown fat (as described in Uldry et al., Cell metabolism, 3 (2006) 333-341) was cultured and differentiated as previously described in Mottillo, Journal of Biological Chemistry, 287 (2012) 25038-25048. Briefly, confluent cells were placed in induction media (0.5 mM IBMX; 0.25 mM indomethacin; 2 μg/ml dexamethasone; 1 nM T3, 20 nM insulin) for two days and subsequently maintained on differentiation media (1 nM T3, 20 nM insulin). All experiments were performed on cultures 6-8 days post-induction. Unless otherwise indicated, cells were rinsed with PBS and media was changed to HEPES-buffered Krebs Ringer buffer (HKRB)+1% BSA. Where indicated, BAs were treated with serotonin for 30 min (100 μM; Sigma) followed by isoproterenol (1 nM, Sigma) for 4 h. […] cAMP measurements. cAMP levels were measured in BA stimulated for 10 min with isoproterenol (1 nM). […] The cAMP levels were quantified by ELISA (Biomedical Technologies Inc.) as previously described (Mottillo et al., American Journal of Physiology-Endocrinology And Metabolism, 301 (2011) […]-[…]). […] The expression pattern of various genes was quantified by qRT-PCR analysis, as previously described (Mottillo et al., American journal of physiology, 293 (2007) […]-1197). […] 25 ng of cDNA was analyzed in a 10 μl quantitative PCR reaction (Amplitaq Gold) as previously described. […] The extracts were recovered and proteins were quantified by using the bicinchoninic acid method (Pierce). […]

[7] = test system: 5-HT receptor; experiment: Isoproterenol-induced lipolysis (FFA release) in immortalized BAT cells; format: cell-based, mouse; details: 5-HT at 100 μM, n=2
Experimental: Briefly, confluent cells were placed in induction media (0.5 mM IBMX; 0.25 mM indomethacin; 2 μg/ml dexamethasone; 1 nM T3, 20 nM insulin) for two days and subsequently maintained on differentiation media (1 nM T3, 20 nM insulin). All experiments were performed on cultures 6-8 days post-induction. Unless otherwise indicated, cells were rinsed with PBS and media was changed to HEPES-buffered Krebs Ringer buffer (HKRB)+1% BSA. Where indicated, BAs were treated with serotonin for 30 min (100 μM; Sigma) followed by isoproterenol (1 nM, Sigma) for 4 h. The serotonin receptor antagonist, methysergide (3 μM) was used 45 min prior treatment with serotonin as above.

[8] = test system: UCP1; experiment: Ucp1 promoter activity, Ucp1 mRNA and UCP1 protein in brown adipocytes; format: cell-based, mouse
Experimental: Using RNA-Seq, cultured human brown and beige adipocytes were interrogated for 5-HT receptor mRNA expression. Immortalized murine brown adipocytes (BAs) were treated with or without the selective 5-HT reuptake inhibitor (SSRI), paroxetine (250 nM). Subsequent studies were conducted with and without 5-HT2A agonists (1 pM-10 uM TCB-2, 1 pM-10 uM AL-34662, and 1 pM-10 uM NBOH-2C-CN) and 5-HT2A antagonists (100 fM-100 pM MDL-100907, 100 pM-10 uM xylamidine tosylate, 1 nM ketanserin, 10 nM altanserin, 100 fM-100 pM EMD-281,014, and 100 pM-10 uM sarpogrelate hydrochloride).
BA progenitors were isolated and immortalized from WT and serotonin transporter (SERT; Gene: Slc6a4) KO mice. These cells were then differentiated for 7 days to obtain mature BAs. BAs were then treated with different doses of 5-HT for 4 hours. RNA was isolated and quantified using RT-qPCR with probes specific for Slc6a4, Ucp1 and PPIA.
BA progenitors were isolated from mice expressing a transgene where the luciferase gene is driven by the Ucp1 promoter (i.e. Ucp1-Luc2 mice; a.k.a. ThermoMouse; Jackson Laboratories). Upon 9 days of differentiation, these BAs were treated for 4 hours with different doses of 5-HT. Because in vitro there is not a continuous supply of 5-HT as there is in vivo, cells were treated with paroxetine to inhibit the uptake and consequent degradation of 5-HT, and to observe 5-HT receptor specific effects. These cells were then lysed, incubated with a luciferin assay cocktail, and the light generated quantified on a microplate reader.

[9] = chronic administration, high fat diet

T1 sequence (P35363 whole entry): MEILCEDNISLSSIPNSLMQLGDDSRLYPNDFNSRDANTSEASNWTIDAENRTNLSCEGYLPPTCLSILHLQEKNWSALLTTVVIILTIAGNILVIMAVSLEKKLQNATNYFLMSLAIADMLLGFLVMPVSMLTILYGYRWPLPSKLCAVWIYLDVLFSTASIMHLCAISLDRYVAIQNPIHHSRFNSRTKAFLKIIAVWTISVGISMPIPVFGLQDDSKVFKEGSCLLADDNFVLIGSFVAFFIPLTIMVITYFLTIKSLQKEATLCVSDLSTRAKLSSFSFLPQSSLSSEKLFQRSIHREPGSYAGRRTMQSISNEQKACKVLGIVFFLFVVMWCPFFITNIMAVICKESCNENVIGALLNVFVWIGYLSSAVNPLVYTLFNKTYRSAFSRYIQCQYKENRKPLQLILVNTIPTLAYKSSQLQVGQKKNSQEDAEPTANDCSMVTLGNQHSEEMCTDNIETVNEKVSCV

SMILES: COc1cccc(OC(C)CNC(=N)Cc2cccc(C)c2)c1.Cc1ccc(S(=O)(=O)O)cc1 (stereo not shown) [xylamidine tosylate]
- 5-HT induced Ca2+ transients ([1]; pre-treatment with antagonist): attenuated
- effects of 5-HT on BAT activity ([2]; pre-treatment 3 mg/kg, CL-316,243 activated BAT): completely blocked
- glucose tolerance [3]: improved
- brown adipose tissue specific energy expenditure ([4]; chow mice, repeated administration 3 mg/kg daily ~5 weeks, CL-316,243): increased
- energy expenditure when BAT is inactive ([4]; saline): no effect
- oxygen consumption, heat production, and non-moving oxygen consumption ([5]; 3 mg/kg daily, high fat diet): increased
- glucose tolerance ([5]; 3 mg/kg daily, high fat diet (45% of calories from fat)): improved
- iWAT levels of UCP1 and mitochondrial proteins [5, 9]: increased
- iWAT mRNA levels of Prdm16 [5, 9]: elevated
- liver triglycerides levels [5, 9]: significantly reduced
- weight gain and increases in fat mass [5, 9]: prevented

SMILES: NCCc1c[nH]c2ccc(O)cc12 [5-HT, 5-hydroxytryptamine]
- isoproterenol-stimulated cAMP [6]: attenuated
- phosphorylation of protein kinase A substrates (HSL S660) [6]: attenuated
- induction of the thermogenic gene program ([6]; Pgc1a, Pdk4, Ucp1): blunted
- isoproterenol-induced increases in lipolysis [7]: blunts
- Ca2+ levels ([1]; brown adipocytes stained with Fluo-4, agonist treatment): increased
- Ucp1 mRNA ([8]; brown adipocytes): decreased
- Ucp1 promoter activity ([8]; brown adipocytes): decreased
- UCP1 protein levels ([8]; brown adipocytes, chronic treatment for NBOH-2C-CN): decreased
- UCP1 protein content ([8]; cultured brown adipocytes, only in the presence of paroxetine (SSRI), 8 days): decreased
- brown adipose tissue associated oxygen consumption and inter-scapular surface area temperature ([2]; BAT activated with CL-316,243, 5 mg/kg 5-HT): significantly attenuated
- markers of brown adipose tissue activity (VO2, interscapular surface temperature) ([2]; thermoneutral conditions, BAT inactive (saline), 5 mg/kg 5-HT): no effect
